According to patent EP0241573A1, “Topical agents for inhibiting the melanin generation” (Sansho Seiyaku Co., Ltd., priority 1986, dated 1987):

Assays:
[1] = molecular target: T1, tyrosinase from a B16 cell homogenate (Mus musculus, UniProt P11344); assay: B16 cell-derived tyrosinase activity inhibition (absorbance increase at 475 nm); assay type: biochemical; settings: aqueous solutions 0.1, 0.05 and 0.03 µl/ml; 10 mM dopa, pH 6.8, 37°C, 0.15 minutes
T1 construct: 0.1 ml of a 11000 G supernatant of a B16 cell homogenate; endogenous in cells; host or cells: B16 mouse melanoma cells (11000 G supernatant of homogenate)
T1 sequence (P11344 19-533): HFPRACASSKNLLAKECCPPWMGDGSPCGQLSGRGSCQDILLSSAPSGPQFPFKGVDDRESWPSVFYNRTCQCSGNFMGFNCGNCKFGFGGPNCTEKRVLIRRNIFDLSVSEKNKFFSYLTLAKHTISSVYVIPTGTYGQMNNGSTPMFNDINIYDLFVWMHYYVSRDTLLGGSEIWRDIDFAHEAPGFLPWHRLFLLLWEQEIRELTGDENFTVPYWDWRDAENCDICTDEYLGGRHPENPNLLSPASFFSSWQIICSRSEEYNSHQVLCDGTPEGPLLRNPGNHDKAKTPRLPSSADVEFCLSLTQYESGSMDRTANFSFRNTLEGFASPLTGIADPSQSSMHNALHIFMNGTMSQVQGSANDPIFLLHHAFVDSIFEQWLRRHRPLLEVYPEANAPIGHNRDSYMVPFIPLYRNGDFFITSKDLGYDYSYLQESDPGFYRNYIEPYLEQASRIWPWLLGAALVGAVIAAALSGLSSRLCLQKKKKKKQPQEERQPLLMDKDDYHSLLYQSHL
Protocol: Fig. 2 is a figure showing the test results of the tyrosinase activity inhibition by vitamin E solutions on tyrosinase from a B16 cell homogenate. In the figure, -▲-, -●- ,-x- and -o- have the same significance as in Fig. 1.
b. Test on the B16 cell-derived tyrosinase Activity Inhibition
Samples were prepared respectively by adding 1.0 ml of aqueous solutions containing vitamin E at concentrations of 0.1 µl/ml, 0.05 µl/ml and 0.03 µl/ml prepared in the production examples described hereinbelow to 0.1 ml of a 11000 G supernatant of a B16 cell homogenate, 1.0 ml of a 10 mM dopa and 0.9 ml of a 0.1 M phosphate buffer (pH 6.8), also a solution containing no vitamin E was prepared as a control, and the increase in absorbance at 475 nm at 37°C for […] was measured.

[2] = according to WHO; cited from earlier work
[3] = system: B16 cells derived from the mouse melanoma; assay: Test on B16 cultured cells derived from mouse melanoma: degree of melanin generation (blackening/whitening) observed by the naked eye; assay type: cell-based; design: key: -: Not whitened at all; +: Slightly whitened; +: Considerably whitened; ++: Whitening clearly descernible; +++: Whitening proceeded to such degree that blackening cannot be observed; settings: culture 5 days at 37°C
Protocol: I. Test on B16 Cultured Cells Derived from Mouse Melanoma (Testing Method)
Aqueous solution of vitamin E was added 30 µg/ml, 20 µg/ml, 10 µg/ml and 2 µg/ml respectively in final concentration to the culture medium for B16 cells derived from the mouse melanoma. After culture period for 5 days at 37°C, the degree of melanin generation (degree of blackening) was observed by the naked eyes.

[4] = system: mashroom tyrosinase; assay: Mushroom-derived tyrosinase activity inhibition (absorbance increase at 475 nm); assay type: biochemical; settings: aqueous solutions 0.1, 0.05 and 0.03 µl/ml; tyrosine substrate, pH 6.8, 37°C, 0-15 minutes
Protocol: Fig. 1 is a figure showing the test results of the tyrosinase activity inhibition by vitamin E solutions on mashroom tyrosinase. In the figure, -▲- stands for the absorbance at 475 nm of an aqueous solution of a concentration of vitamin E of 0.1 µl/ml, -●- for an aqueous solution of concentration of vitamin E of 0.05 µl/ml, -x- for an aqueous solution of a concentration of vitamin E of 0.03 µl/ml and -o- for an aqueous solution containing no vitamin E (control).
a. Test on the Mashroom-derived Tyrosinase Activity Inhibition
Samples were prepared by adding 1.0 ml of aqueous solutions containing vitamin E at concentrations of 0.1 µl/ml, 0.05 µl/ml and 0.03 µl/ml respectively to 1.0 ml of a tyrosine solution (0.3 mg/ml), 0.9 ml of a 0.1 M phosphate buffer (pH 6.8) and 0.1 ml of mashroom tyrosinase (400 U/ml), also a solution containing no vitamin E was prepared as a control, and the increase in absorbance at 475 nm at 37°C for 0-15 minutes was measured.

## vitamin E
[1]
  effect to inhibit the B16 cell tyrosinase: not observed
[2]
  acute toxicity: no acute toxicity
[3]; 10 µg/ml final concentration
  Degree of Whitening: +
[3]; 20 µg/ml final concentration
  Degree of Whitening: ++
[3]; 30 µg/ml final concentration
  Degree of Whitening: +++
[4]
  effect to inhibit the mashroom tyrosinase: not observed
